pKd: −log10 of the molar value. “Also recorded” adds a separate entry of the source.
Experiments:
B6BCL-2 transgenic mouse = assay: In vivo test in the B6BCL-2 transgenic mouse; details: for In vivo activity compared with known compounds / Order of potency in terms of in vivo efficacy: B6BCL-2 transgenic mouse; for Order of potency in terms of in vivo efficacy / Order of severity of toxic effect: rank order; for Order of severity of toxic effect: diminishing severity
Method: Some compounds of the invention were also tested in vivo in the B6BCL-2 transgenic mouse. […] Gossypol is described, e.g., in U.S. Pat. No. 7,186,708. Apogossypol is described, e.g., in Meyers A. I.; Willemsen J. J., Tetrahedron Letters, vol. 37, No. 6, February, […], pp. 791-792.

Triplet B6Bcl2 mice = assay: Delivery of Epalrestat in vivo, spleen weight in Triplet B6Bcl2 mice
Method: Epalrestat (compound 11) was given to Triplet B6Bcl2 mice at a daily dose of 0.12 mmol/kg for 3 days (i.e., QDX3) through oral gavage. […] Both Epalrestat and the negative control were dissolved in PBS.
After 3 days, the spleens of the animals were removed.

BCL-XL [1] = target: T1, BCL-XL (Homo sapiens, UniProt Q07817); assay: Inhibition evaluated by measuring dissociation constant (Kd); assay type: binding
T1 construct: Recombinant full length BCL-XL was produced; poly-His (N); made in house; host or cells: E. coli BL21
T1 sequence (Q07817 whole entry, species assumed): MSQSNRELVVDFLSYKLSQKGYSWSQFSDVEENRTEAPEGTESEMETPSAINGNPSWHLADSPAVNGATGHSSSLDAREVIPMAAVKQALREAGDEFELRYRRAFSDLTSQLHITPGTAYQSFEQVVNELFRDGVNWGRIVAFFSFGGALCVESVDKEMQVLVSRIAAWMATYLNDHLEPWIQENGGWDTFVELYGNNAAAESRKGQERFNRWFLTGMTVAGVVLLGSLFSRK
Method: (§1) Predicted binding mode of some compounds of the present invention to a BCL-2 protein is illustrated by FIG. 1 (binding of compound 11 shown below), FIG. 2A (binding of compound 1 shown above), and FIG. 2B (binding of compound 2 shown above). […] FIG. 4 and FIG. 5 show such NMR data for compounds 6 and 7 shown above. The inhibition was also evaluated by measuring dissociation constant (Kd) values for some compounds of the invention.

BCL-XL [2] = target: T1, BCL-XL; assay: NMR spectroscopy binding test (1D 1H / 2D [15N,1H]-HSQC); details: NMR data, FIGS. 3-5; negative control
Method: as §1
For all NMR experiments, BCL-xL was exchanged into 50 mM phosphate buffer at pH 7.5 and measurements were performed at 30° C. 2D [^15N,^1H]-HSQC spectra for BCL-xL were measured with 0.5 mM samples of ^15N-labeled protein. All experiments were performed with a 600 MHz Bruker Avance spectrometer, both equipped with either a TXI probe or a TCI cryoprobe. In all experiments, dephasing of residual water signals was obtained with a WATERGATE sequence. In order to test the ability of test compounds to bind to Bcl-xL, a 25 μM sample of the protein was prepared and 1D ^1H NMR spectra were collected in absence and presence of test compounds. By observing the aliphatic region of the spectra, binding can be readily detected in these simple experiments due to chemical shift changes in active site methyl groups of Ile, Leu, Thr, Val or Ala (region between 0.8 and 0.3 ppm).

| Compound | In vivo activity compared with known compounds (B6BCL-2 transgenic mouse) | Order of potency in terms of in vivo efficacy (B6BCL-2 transgenic mouse) | Order of severity of toxic effect (B6BCL-2 transgenic mouse) | pKd (BCL-XL [1]) | also measured |
| --- | --- | --- | --- | --- | --- |
| CC(=Cc1ccccc1)C=C1SC(=S)N(CC(=O)O)C1=O [Compound 11, 2-[5-(2-methyl-3-phenylallylidene)-4-oxo-2-thioxothiazolidin-3-yl]acetic acid] | equal to, or better than, known compounds gossypol and apogossypol | compound 11>compound 5>compound 3=apogossypol=gossypol | gossypol>>>apogossypol>compound 5=compound 3=compound 11 | 4.93 | Shrinkage of spleen (Triplet B6Bcl2 mice; dosed orally or intraperitoneally): induced shrinkage of spleen whether dosed orally or intraperitoneally; Weight loss or signs of toxicity via physical exam (Triplet B6Bcl2 mice; intraperitoneal and oral routes, listed as Epalrestat): no weight loss or signs of toxicity via physical exam; also recorded: qualitatively safer than ApoG; Spleen Weight (Triplet B6Bcl2 mice; oral gavage, 0.12 mmol/kg daily for 3 days (QDX3), in PBS, spleens removed after 3 days): 193.9 mg; % spleen shrinkage, intraperitoneal versus oral dosing (Triplet B6Bcl2 mice; route comparison): Intraperitoneal injection induced more % shrinkage than oral dosing; Binding to BCL-XL by NMR (BCL-XL [2]): binding had occurred |
| CC(C(=O)O)N1C(=O)C(=CC=Cc2ccccc2)SC1=S (stereo not shown) [Compound 10, 2-[4-oxo-5-(3-phenylallylidene)-2-thioxothiazolidin-3-yl]propanoic acid] |  |  |  | 4.46 |  |
| COc1cc2cc(C=C3SC(=S)N(C(C(=O)O)C(C)C)C3=O)c(C)cc2c(C(C)C)c1OC (stereo not shown) [Compound 3, 2-[5-(1-isopropyl-2,3-dimethoxy-7-methylnaphthalen-6-yl-methylene)-4-oxo-2-thioxothiazolidin-3-yl]-3-methylbutanoic acid] | equal to, or better than, known compounds gossypol and apogossypol | compound 11>compound 5>compound 3=apogossypol=gossypol | gossypol>>>apogossypol>compound 5=compound 3=compound 11 |  |  |
| CC(=C\c1ccccc1)/C=C1/SC(=S)N(C(C(=O)O)C(C)C)C1=O (stereo not shown) [Compound 2, 3-methyl-2-[5-(2-methyl-3-phenylallylidene)-4-oxo-2-thioxothiazolidin-3-yl]butanoic acid] |  |  |  | 5.24 |  |
| CC(C)C(C(=O)O)N1C(=O)C(=CC=Cc2ccccc2)SC1=S (stereo not shown) [Compound 9, 3-methyl-2-[4-oxo-5-(3-phenylallylidene)-2-thioxothiazolidin-3-yl]butanoic acid] |  |  |  | 4.97 |  |
| Cc1cc2c(C(C)C)c(O)c(O)cc2c(O)c1-c1c(C)cc2c(C(C)C)c(O)c(O)cc2c1O [apogossypol] |  | compound 11>compound 5>compound 3=apogossypol=gossypol | gossypol>>>apogossypol>compound 5=compound 3=compound 11 |  |  |
| COc1cc2c(cc1OC)C(Br)=C(C=C1SC(=S)N(C(C(=O)O)C(C)C)C1=O)CC2 (stereo not shown) [Compound 5, 2-[5-((4-bromo-1,2-dihydro-6,7-dimethoxynaphthalen-3-yl)methylene)-4-oxo-2-thioxothiazolidin-3-yl]-3-methylbutanoic acid] | equal to, or better than, known compounds gossypol and apogossypol | compound 11>compound 5>compound 3=apogossypol=gossypol | gossypol>>>apogossypol>compound 5=compound 3=compound 11 |  |  |
| COc1c(C=C2SC(=S)N(C(C(=O)O)C(C)C)C2=O)cc2ccccc2c1OC (stereo not shown) [Compound 7, 2-[5-((1,2-dimethoxynaphthalen-3-yl)methylene)-4-oxo-2-thioxothiazolidin-3-yl]-3-methylbutanoic acid] |  |  |  |  | Binding to BCL-XL by NMR (BCL-XL [2]): binding had occurred |
| CC(C)C(C(=O)O)N1C(=O)C(=CC2=C(Br)c3cc(O)c(O)cc3CC2)SC1=S (stereo not shown) [Compound 6, 2-[5-((4-bromo-1,2-dihydro-6,7-dihydroxynaphthalen-3-yl)methylene)-4-oxo-2-thioxothiazolidin-3-yl]-3-methylbutanoic acid] |  |  |  |  | Binding to BCL-XL by NMR (BCL-XL [2]): binding had occurred |
| CC(=C\c1ccccc1)/C=C1/SC(=S)N(C(C(=O)O)c2ccccc2)C1=O (stereo not shown) [Compound 1, 2-[5-(2-methyl-3-phenylallylidene)-4-oxo-2-thioxothiazolidin-3-yl]-2-phenylacetic acid] |  |  |  | 6.00 |  |
| Cc1cc2c(C(C)C)c(O)c(O)c(C=O)c2c(O)c1-c1c(C)cc2c(C(C)C)c(O)c(O)c(C=O)c2c1O [gossypol] |  |  | gossypol>>>apogossypol>compound 5=compound 3=compound 11 |  |  |
| apogossypolone | not effective at all |  |  |  |  |

— patent US20090124675A1, “INHIBITORS OF ANTI-APOPTOTIC PROTEINS” (Burnham Institute for Medical Research, priority 2007, published 2009)
